Numbered stars: 1 amine (or outer) side, 2 acyl side, 3 side chain; on linkers, the order of the positions; unused ones are H or OH. Square brackets hold non-standard residues; d marks the D form. Peptide text beside a SMILES is read from it. * marks the point of attachment. DOTA = O=C(O)CN1CCN(CC(=O)O)CCN(CC(=O)*)CCN(CC(=O)O)CC1; Gly(N-(3-F-4-Me-benzyl)) = Cc1ccc(CNCC(=O)*)cc1F; Gly(Nα-4-MeO-benzyl) = COc1ccc(CNCC(=O)*)cc1; Api(1-amidino) = N=C(N)N1CCC(N)(C(=O)O)CC1; d(γGlu) = O=C(O)[C@@H](CCC(=O)[*:2])N[*:1]; Hydrocinnamoyl(4-I) = O=C(CCc1ccc(I)cc1)*; 2Nal = N[C@@H](Cc1ccc2ccccc2c1)C(=O)O; d2Nal = N[C@H](Cc1ccc2ccccc2c1)C(=O)O; Palmitoyl = CCCCCCCCCCCCCCCC(=O)*; 4Pal = N[C@@H](Cc1ccncc1)C(=O)O; Lauroyl = CCCCCCCCCCCC(=O)*; 4Amb = NCc1ccc(C(=O)O)cc1; Api = NC1(C(=O)O)CCNCC1; PEG2 = NCCOCCOCCC(=O)O; Ahx = NCCCCCC(=O)O; azaGly = NNC(=O)O; Sar = CNCC(=O)O
biological target: human kisspeptin receptor (Homo sapiens (Human), UniProt Q969F8); assay: Human KISS1R binding assay (membrane competition binding); conditions: 90 min at room temperature; competition with 0.2 nM [125I]-metastin (45-54); Flp-In T-Rex 293 kisspeptin membranes; metal complexes nonradioactive Ga, In, Lu; read-out: hKiSSR Binding Ki (90 min)
Summary of the method: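 Radioligand competition: 0.2 nM [125I]-metastin (45-54) displaced by test ligand (usually 0–10,000 nM) over 90 min at room temperature, pH 7.4 buffer with 0.1% BSA. Receptor source is crude membrane (5–10 μg) from tetracycline-induced Flp-In T-Rex 293 cells. Bound label filtered and counted; Ki from non-linear regression.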

human kisspeptin receptor, sequence (Q969F8 whole entry): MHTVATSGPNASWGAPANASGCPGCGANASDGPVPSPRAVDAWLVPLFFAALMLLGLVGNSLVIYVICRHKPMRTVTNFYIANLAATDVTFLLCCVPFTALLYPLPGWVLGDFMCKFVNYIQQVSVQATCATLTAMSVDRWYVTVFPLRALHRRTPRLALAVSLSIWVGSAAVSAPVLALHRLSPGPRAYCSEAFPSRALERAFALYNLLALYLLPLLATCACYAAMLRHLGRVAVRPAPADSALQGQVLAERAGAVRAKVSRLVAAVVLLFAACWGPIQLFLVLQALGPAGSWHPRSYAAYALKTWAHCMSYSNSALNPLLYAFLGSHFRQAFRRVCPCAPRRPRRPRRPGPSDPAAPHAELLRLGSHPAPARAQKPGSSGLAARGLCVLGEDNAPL

Ki, < 10 nM:
CCCCCCCCCCCC(=O)N[C@H](Cc1ccc(O)cc1)C(=O)N[C@H](Cc1ccc2ccccc2c1)C(=O)N[C@@H](CC(N)=O)C(=O)N[C@H](C(=O)N[C@@H](Cc1ccccc1)C(=O)NNC(=O)N[C@@H](CC(C)C)C(=O)NC1(C(=O)N[C@@H](Cc2ccc(O)cc2)C(N)=O)CCN(C(=O)CNC)CC1)[C@@H](C)O [Compound 401] (Lauroyl-[dY][d2Nal]NTF[azaGly]L[Api](Sar)Y-NH2)
CC(C)C[C@H](NC(=O)NNC(=O)[C@H](Cc1ccccc1)NC(=O)[C@@H](NC(=O)[C@H](CC(N)=O)NC(=O)[C@H](CCCCNC(=O)CN1CCN(CC(=O)O)CCN(CC(=O)O)CCN(CC(=O)O)CC1)NC(=O)[C@@H](Cc1ccc(O)cc1)NC(=O)CCOCCOCCNC(=O)CCc1ccc(I)cc1)[C@@H](C)O)C(=O)NC1(C(=O)N[C@@H](Cc2ccccc2)C(N)=O)CCN(C(=N)N)CC1 [Compound 323] ({Hydrocinnamoyl(4-I)-PEG2}-[dY]K(DOTA)NTF[azaGly]L[Api(1-amidino)]F-NH2)
Cc1ccc(CNCC(=O)N2CCC(NC(=O)[C@H](CC(C)C)NC(=O)NNC(=O)[C@H](Cc3ccccc3)NC(=O)CC[C@@H](NC(=O)CN3CCN(CC(=O)O)CCN(CC(=O)O)CCN(CC(=O)O)CC3)C(=O)O)(C(=O)N[C@@H](Cc3c[nH]c4ccccc34)C(N)=O)CC2)cc1F [Compound 156] ({DOTA-d(γGlu)}-F[azaGly]L[Api](Gly(N-(3-F-4-Me-benzyl)))W-NH2)
Cc1ccc(CNCC(=O)N2CCC(NC(=O)[C@H](CC(C)C)NC(=O)NNC(=O)[C@H](Cc3ccccc3)NC(=O)c3ccc(CNC(=O)CCCCCNC(=O)CN4CCN(CC(=O)O)CCN(CC(=O)O)CCN(CC(=O)O)CC4)cc3)(C(=O)N[C@@H](Cc3c[nH]c4ccccc34)C(N)=O)CC2)cc1F [Compound 22] ({DOTA-Ahx-4Amb}-F[azaGly]L[Api](Gly(N-(3-F-4-Me-benzyl)))W-NH2)
Cc1ccc(CNCC(=O)N2CCC(NC(=O)[C@H](CC(C)C)NC(=O)NNC(=O)[C@H](Cc3ccccc3)NC(=O)[C@@H](NC(=O)[C@H](CC(N)=O)NC(=O)[C@@H](Cc3ccc(O)cc3)NC(=O)CCCCCNC(=O)CN3CCN(CC(=O)O)CCN(CC(=O)O)CCN(CC(=O)O)CC3)[C@@H](C)O)(C(=O)N[C@@H](Cc3ccncc3)C(N)=O)CC2)cc1F [Compound 291] ({DOTA-Ahx}-[dY]NTF[azaGly]L[Api](Gly(N-(3-F-4-Me-benzyl)))[4Pal]-NH2)
Cc1ccc(CNCC(=O)N2CCC(NC(=O)[C@H](CC(C)C)NC(=O)NNC(=O)[C@H](Cc3ccccc3)NC(=O)CCCCCNC(=O)[C@H](Cc3ccc4ccccc4c3)NC(=O)[C@@H](Cc3ccc(O)cc3)NC(=O)CN3CCN(CC(=O)O)CCN(CC(=O)O)CCN(CC(=O)O)CC3)(C(=O)N[C@@H](Cc3ccncc3)C(N)=O)CC2)cc1F [Compound 286] ({DOTA}-[dY][2Nal][Ahx]F[azaGly]L[Api](Gly(N-(3-F-4-Me-benzyl)))[4Pal]-NH2)
CCCCCCCCCCCCCCCC(=O)N[C@H](Cc1ccc(O)cc1)C(=O)N[C@@H](CCCCNC(=O)CN1CCN(CC(=O)O)CCN(CC(=O)O)CCN(CC(=O)O)CC1)C(=O)N[C@@H](CC(N)=O)C(=O)N[C@H](C(=O)N[C@@H](Cc1ccccc1)C(=O)NNC(=O)N[C@@H](CC(C)C)C(=O)NC1(C(=O)N[C@@H](Cc2c[nH]c3ccccc23)C(N)=O)CCN(C(=N)N)CC1)[C@@H](C)O [Compound 328] (Palmitoyl-[dY]K(DOTA)NTF[azaGly]L[Api(1-amidino)]W-NH2)
COc1ccc(CNCC(=O)N2CCC(NC(=O)[C@H](CC(C)C)NC(=O)NNC(=O)[C@H](Cc3ccccc3)NC(=O)[C@@H](NC(=O)[C@H](CC(N)=O)NC(=O)[C@H](CCC(=O)O)NC(=O)CN3CCN(CC(=O)O)CCN(CC(=O)O)CCN(CC(=O)O)CC3)[C@@H](C)O)(C(=O)N[C@@H](Cc3ccccc3)C(N)=O)CC2)cc1 [Compound 237] ({DOTA}-ENTF[azaGly]L[Api](Gly(Nα-4-MeO-benzyl))F-NH2)

— patent US20250312499A1, “KISSPEPTIN RECEPTOR (KISS1R) TARGETED THERAPEUTICS AND USES THEREOF” (priority 2024, published 2025)
